Reference: US20260242415A1 (priority 2022, published 2026)

Tests used:
SARS-CoV-2 spike protein = SARS-CoV-2 spike protein (Severe acute respiratory syndrome coronavirus 2, UniProt P0DTC2); format: binding; design: key: Results labeled “−” represent decreased binding; Results labeled “0” represent substantially similar binding; Results labeled “1” represent the original sequence; Results labeled “+” represent about 105-200% binding; Results labeled “++” represent about 200-300% binding; Results labeled “+++” represent about 300-500% binding; Results labeled “++++” represent over about 500% binding
omicron variant = settings: cited from earlier work
[1] = test system: SARS2-S pseudotyped VSV, Alpha
[2] = test system: SARS2-S pseudotyped VSV, Beta
[3] = test system: SARS2-S pseudotyped VSV, Delta
[4] = test system: SARS2-S pseudotyped VSV, Omicron BA.1
[5] = test system: SARS2-S pseudotyped VSV, Omicron BA.2

Row | Compound | binding standardized to SEQ ID NO: 1 (SARS-CoV-2 spike protein) | also measured
1 | RAPREQIIIGSLWVF [SEQ ID NO: 17] | − | 
2 | RRPREQIIIGSAWVF [SEQ ID NO: 27] | − | 
3 | RRPREQIIIGALWVF [SEQ ID NO: 26] | − | 
4 | Sotrovimab |  | fold loss in potency / decrease in activity against omicron (omicron variant): 3 fold
5 | RRPREQAIIGSLWVF [SEQ ID NO: 22] | − | 
6 | RRPAEQIIIGSLWVF [SEQ ID NO: 19] | 0 | 
7 | RRPREQIIIGSLWVF [Compound S1b3inL1] | 1 | 
8 | RRPREQIIIASLWVF [SEQ ID NO: 25] | − | 
9 | CC[C@H](C)[C@@H]1NC(=O)[C@H](CCC(N)=O)NC(=O)[C@H](CCC(=O)O)NC(=O)[C@H](CCCNC(=N)N)NC(=O)[C@@H]2CCCN2C(=O)[C@H](CCCNC(=N)N)NC(=O)[C@H](CCCNC(=N)N)NC(=O)[C@H](Cc2ccc(O)cc2)NC(=O)CSC[C@@H](C(=O)NCC(N)=O)NC(=O)[C@H](Cc2ccccc2)NC(=O)[C@H](C(C)C)NC(=O)[C@H](Cc2c[nH]c3ccccc23)NC(=O)[C@H](CC(C)C)NC(=O)[C@H](CO)NC(=O)CNC(=O)[C@H]([C@@H](C)CC)NC(=O)[C@H]([C@@H](C)CC)NC1=O [Compound S1b3inL1] |  | IC50 [1]: 2.6 µM; IC50 [2]: 5.2 µM; IC50 [3]: 3.5 µM; IC50 [4]: 5.2 µM; IC50 [5]: 3.5 µM
10 | RRPREQIIAGSLWVF [SEQ ID NO: 24] | − | 
11 | ARPREQIIIGSLWVF [SEQ ID NO: 16] | − | 
12 | RRPREQIAIGSLWVF [SEQ ID NO: 23] | − | 
13 | RRPREQIIIGSLAVF [SEQ ID NO: 28] | − | 
